Tests used:
human SCN9A (Nav 1.7) = human SCN9A (Nav 1.7) (Homo sapiens, UniProt Q15858); assay: Measurement of Na ion current (Nav 1.7) by automated patch clamp assay in cells stably-expressing human SCN9A; format: cell-based; details: compound concentration 10 μmol/L, holding potential inactivating 50% Nav 1.7 channel (around −60 mV); for inhibition at 10 µM: read-out: Inhibitory rate (%) of Na ion current
Description: Test 1: Measurement of Na Ion Current in Voltage-Dependent Na Channel Gene Expressed Cell
Nav 1.7 current was measured by automated patch clamp assay using cells stably-expressing human SCN9A.
Cells Stably-Expressing Human SCN9A
Tetracycline-induced cells stably-expressing SCN9A were obtained from ChanTest Corporation. The cells were passaged in Ham's F-12 medium containing 10% fetal bovine serum, 100 units/mL Penicillin-Streptomycin, 0.01 mg/mL Blasticidin, and 0.4 mg/mL Zeocin. The day before the measurement, the medium was replaced with Ham's F-12 medium containing 1 μg/mL tetracycline, 100 μmol/L sodium butyrate, 10% fetal bovine serum, and 100 units/mL Penicillin-Streptomycin. Next day, the Na ion current was measured by automated patch clamp assay.
Electrophysiologic Measurement of Na Ion Current
The Na ion current was measured by automated patch clamp assay using the following extracellular solution and intracellular solution.
Extracellular solution (mmol/L): NaCl 130, MgCl2 2, CaCl2 2, CdCl2 0.1, NiCl2 0.1, Tetraethylammonium-Cl 18, 4-aminopyridine 1, HEPES 10, (adjusting pH 7.4 with NaOH)
Intracellular solution (mmol/L): CsF 120, EGTA 10, NaCl 15, HEPES 10, (adjusting pH 7.2 with CsOH)
The control of the stimulating pulse and the data acquisition were carried out using EPC10 amplifier and Patch Master Software (HEKA). Data were sampled at 10 kHz, and low-pass filtered at 3 kHz. All the measurements were carried out at room temperature. The holding potential was set at a potential inactivating 50% Nav 1.7 channel (around −60 mV), and depolarizing pulse of 20 milliseconds (+10 mV) was given once. […] The inhibitory rate of the Na ion current by the test compounds was calculated according to the following calculating formula with the peak current value generated by the depolarizing pulse. Inhibitory rate of Na ion current (%)=100×[(Peak current value in the absence of Test Compound)−(Peak current value in the presence of Test Compound)]/(Peak current value in the absence of Test Compound) Result: […]

[1] = test system: rats streptozotocin (STZ)-induced diabetic peripheral neuropathy model; assay: Analgesic effect (von Frey test) in streptozotocin-induced diabetic peripheral neuropathic pain model; format: in vivo, rat; details: orally administered 3 mg/kg, one hour before measuring, male Wistar rats
Description: Test 2: Evaluation of Analgesic Effect in Streptozotocin-Induced Diabetic Peripheral Neuropathic Pain Models
Using some typical compounds among the compounds of the present invention, the inhibitory effect for neuropathic pain was determined through the evaluation of analgesic effect in rats streptozotocin (STZ)-induced diabetic peripheral neuropathy model.
The disease animal model was prepared by means of a partially-modified method of Fox et al. (Pain 81, 307-316, 1999). STZ was intraperitoneally administered to 9-week old male Wistar rats in 45 mg/kg of body weight to prepare animal model suffering from diabetic peripheral neuropathy.
The analgesic effect was evaluated by von Frey test. Specifically, mechanical sensitivity was measured by applying hairs (von Frey hair) to the plantar surface of the animal's hind paw, and then the reaction thresholds (50% paw withdrawal thresholds) for the mechanical stimulation was determined by using a formula based on Chaplan et al. (Journal of Neuroscience Methods 53, 55-63, 1994).
One and two days before evaluating the test compounds, the reaction thresholds were measured to obtain an average thereof, and the average value was used as a reference value obtained before the test compounds would be administered. […]
In the evaluation test of the test compounds, the reaction thresholds were measured after administering each test compound. […]

[2] = Metabolic stability test in liver microsome (human); format: in vitro ADME; details: NADPH, 37° C., 30 minutes, dealkyl metabolite product (Reference example 5-7) assayed
Description: (§1) Test 3: Metabolic Stability Test in Liver Microsome
(§2) To a solution obtained by mixing 4 μL of human or rat liver microsome (produced by Xenotech, 20 mg/mL), 100 μL of 100 mM phosphate buffer solution (pH 7.4), and 74 μL of ultrapure water were added 2 μL of 1 μM DMSO solution of the test compound and further 40 μL of 10 mM aqueous NADPH (produced by Oriental Yeast Co., ltd.), and then the mixture was incubated at 37° C. for 30 minutes. After the incubation, 50 μL of the reaction solution was added to methanol to cease the metabolic reaction. The quenched solution was centrifuged at 4° C. at 4500 rpm for 5 minutes, and the supernatant was filtrated. 100 μL of the supernatant was mixed with 100 μL of 10 mM aqueous ammonium acetate, and the mixture was analyzed with LC (Shimadzu, NexeraX2)-MS (AB Sciex, TripleTOF5600) to determine the amount of the corresponding metabolite product in the mixture.

[3] = Metabolic stability test in liver microsome (rat); format: in vitro ADME; details: NADPH, 37° C., 30 minutes, dealkyl metabolite product (Reference example 5-7) assayed
Description: as §1, §2

human SCN9A (Nav 1.7), sequence (Q15858 whole entry): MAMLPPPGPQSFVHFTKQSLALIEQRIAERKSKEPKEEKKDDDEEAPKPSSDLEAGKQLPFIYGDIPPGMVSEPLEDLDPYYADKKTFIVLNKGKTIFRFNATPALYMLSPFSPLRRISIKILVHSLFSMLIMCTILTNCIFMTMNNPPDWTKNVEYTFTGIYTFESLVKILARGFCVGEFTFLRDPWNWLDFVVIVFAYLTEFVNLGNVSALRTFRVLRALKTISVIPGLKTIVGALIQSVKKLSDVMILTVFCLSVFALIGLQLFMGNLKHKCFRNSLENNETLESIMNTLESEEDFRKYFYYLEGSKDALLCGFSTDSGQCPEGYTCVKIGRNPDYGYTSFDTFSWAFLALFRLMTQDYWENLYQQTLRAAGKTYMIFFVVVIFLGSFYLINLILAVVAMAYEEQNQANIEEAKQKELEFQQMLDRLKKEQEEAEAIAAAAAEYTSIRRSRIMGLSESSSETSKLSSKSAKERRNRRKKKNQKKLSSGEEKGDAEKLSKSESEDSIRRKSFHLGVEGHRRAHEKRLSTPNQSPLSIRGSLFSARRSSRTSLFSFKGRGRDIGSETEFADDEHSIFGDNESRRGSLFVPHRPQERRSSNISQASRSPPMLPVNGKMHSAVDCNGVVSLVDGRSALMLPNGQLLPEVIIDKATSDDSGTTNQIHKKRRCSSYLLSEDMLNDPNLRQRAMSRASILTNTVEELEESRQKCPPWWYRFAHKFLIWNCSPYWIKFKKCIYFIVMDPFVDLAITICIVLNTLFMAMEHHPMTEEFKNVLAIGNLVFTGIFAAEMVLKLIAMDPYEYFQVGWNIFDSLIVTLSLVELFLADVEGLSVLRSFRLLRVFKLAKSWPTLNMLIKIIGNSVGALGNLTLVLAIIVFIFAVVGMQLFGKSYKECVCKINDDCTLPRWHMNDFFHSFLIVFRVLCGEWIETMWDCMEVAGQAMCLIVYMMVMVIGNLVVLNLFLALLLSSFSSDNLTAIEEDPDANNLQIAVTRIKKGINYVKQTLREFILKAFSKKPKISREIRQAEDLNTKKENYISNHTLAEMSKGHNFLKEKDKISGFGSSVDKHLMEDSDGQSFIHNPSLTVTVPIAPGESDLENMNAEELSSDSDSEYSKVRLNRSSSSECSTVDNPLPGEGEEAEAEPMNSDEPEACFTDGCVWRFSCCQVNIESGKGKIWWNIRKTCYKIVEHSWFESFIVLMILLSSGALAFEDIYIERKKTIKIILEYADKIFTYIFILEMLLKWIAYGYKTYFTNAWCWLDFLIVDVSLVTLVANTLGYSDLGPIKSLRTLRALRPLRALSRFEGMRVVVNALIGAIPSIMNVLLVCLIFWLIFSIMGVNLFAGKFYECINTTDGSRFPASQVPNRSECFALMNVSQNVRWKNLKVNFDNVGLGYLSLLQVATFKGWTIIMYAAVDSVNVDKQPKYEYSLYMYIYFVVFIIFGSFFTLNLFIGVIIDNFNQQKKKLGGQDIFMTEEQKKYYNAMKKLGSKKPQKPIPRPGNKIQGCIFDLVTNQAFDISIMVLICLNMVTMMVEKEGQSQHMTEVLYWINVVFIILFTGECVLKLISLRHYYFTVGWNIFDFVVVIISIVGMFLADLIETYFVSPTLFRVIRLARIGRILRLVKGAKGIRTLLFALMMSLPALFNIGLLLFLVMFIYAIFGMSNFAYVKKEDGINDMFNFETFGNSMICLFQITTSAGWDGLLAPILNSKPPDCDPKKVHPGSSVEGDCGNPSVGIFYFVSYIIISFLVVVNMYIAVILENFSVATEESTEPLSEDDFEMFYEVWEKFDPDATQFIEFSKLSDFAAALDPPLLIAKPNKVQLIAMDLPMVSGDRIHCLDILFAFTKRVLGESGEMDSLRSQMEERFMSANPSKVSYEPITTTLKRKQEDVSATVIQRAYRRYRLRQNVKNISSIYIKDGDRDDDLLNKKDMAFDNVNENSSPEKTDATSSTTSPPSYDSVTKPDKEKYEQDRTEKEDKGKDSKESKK

| Compound | Inhibitory rate (%) of Na ion current (human SCN9A (Nav 1.7)) | extension width of reaction thresholds (50% paw withdrawal threshold, after minus before administration) [1] | Rate of generating the metabolite product, human [2] | Rate of generating the metabolite product, rat [3] | inhibition at 10 µM (human SCN9A (Nav 1.7)) |
| --- | --- | --- | --- | --- | --- |
| 1-[6-(4-fluorophenoxy)-1H-benzimidazol-1-yl]-2-methyl (1,1-^2H2) propan-2-ol [Example 1] | 36% |  |  |  |  |
| 2-methyl-1-(6-{[5-(trifluoromethyl)pyridin-2-yl]oxy}-1H-benzimidazol-1-yl) (1,1-^2H2)propan-2-ol [Example 2] | 36% | 5.0 g | 0.026 pmol/min/mg protein | 0.260 pmol/min/mg protein |  |
| 4-[6-(4-chlorophenoxy)-1H-benzimidazol-1-yl]-2-methyl(4,4-^2H2)butan-2-ol [Example 3] | 40% |  | 0.069 pmol/min/mg protein | 0.40 pmol/min/mg protein |  |
| [2H]C([2H])(n1cnc2ccc(Oc3ccc(OC(F)(F)F)cc3)cc21)C1(O)COC1 [Example 4, 3-[{6-[4-(trifluoromethoxy)phenoxy]-1H-benzimidazol-1-yl}(^2H2)methyl]oxetan-3-ol] |  |  |  |  | 68% |
| [2H]C([2H])(n1cnc2ccc(-c3ccc(C(F)(F)F)cc3OC)cc21)C1(O)COC1 [Example 5, 3-[{6-[2-methoxy-4-(trifluoromethyl)phenyl]-1H-benzimidazol-1-yl}(^2H2)methyl]oxetan-3-ol] |  |  |  |  | 55% |
